In patent US20060281719A1, “Oestrogen-17-sulphamates as inhibitors of steroid sulphatase” (priority 2000, published 2006):

Key:
[1] = biological target: T1, oestrone sulphatase (E1-STS) (Homo sapiens, UniProt P08842); test: Inhibition of steroid sulphatase activity in placental microsomes; format: biochemical; parameters: from tissue; host or cells: human term placenta (microsomal preparation)
T1 sequence (P08842 22-583): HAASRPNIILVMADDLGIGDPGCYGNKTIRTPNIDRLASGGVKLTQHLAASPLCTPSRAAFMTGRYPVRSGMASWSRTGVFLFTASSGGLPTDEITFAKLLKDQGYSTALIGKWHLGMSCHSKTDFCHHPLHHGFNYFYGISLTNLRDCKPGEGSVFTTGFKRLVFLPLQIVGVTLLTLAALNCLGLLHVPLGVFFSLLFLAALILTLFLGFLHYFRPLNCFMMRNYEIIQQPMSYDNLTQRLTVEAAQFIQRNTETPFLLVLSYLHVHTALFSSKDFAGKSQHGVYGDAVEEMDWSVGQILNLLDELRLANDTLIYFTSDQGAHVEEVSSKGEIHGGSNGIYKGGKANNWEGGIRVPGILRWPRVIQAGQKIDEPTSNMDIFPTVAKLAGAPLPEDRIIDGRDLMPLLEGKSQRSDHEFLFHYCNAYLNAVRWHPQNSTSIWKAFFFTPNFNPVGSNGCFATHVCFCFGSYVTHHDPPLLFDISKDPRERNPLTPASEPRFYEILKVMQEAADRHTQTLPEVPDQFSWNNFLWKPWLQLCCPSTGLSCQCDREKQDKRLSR

[2] = biological target: T1, oestrone sulphatase (E1-STS); test: Inhibition of steroid sulphatase (E1-STS) activity in intact MCF-7 breast cancer cells; format: cell-based

Row | SMILES | % Inhibition of E1-STS activity in placental microsomes ([1]; 10 μM) [%] | % Inhibition of E1-STS activity in placental microsomes ([1]; 25 µM) [%] | % Inhibition of E1-STS activity in placental microsomes ([1]; 50 µM) [%] | % Inhibition of E1-STS activity in placental microsomes ([1]; 100 µM) [%] | % Inhibition of E1-STS activity in MCF-7 cells ([2]; 0.1 μM) [%] | % Inhibition of E1-STS activity in MCF-7 cells ([2]; 1 μM) [%] | % Inhibition of E1-STS activity in MCF-7 cells ([2]; 10 μM) [%]
1 | NS(=O)(=O)Oc1ccc(Cc2ccc(OS(N)(=O)=O)cc2)cc1 [Compound 18, 4,4′-Bis-sulphamoyloxydiphenylmethane] | 22.1 ± 0.6 | 29.4 ± 0.1 | 38.7 ± 4.9 | 53.1 ± 0.1 | 22.2 ± 0.1 | 50.01 ± 0.1 | 93.3 ± 0.1
2 | NS(=O)(=O)Oc1ccc2oc3ccccc3c2c1 [Compound 9, Dibenzofuran-2-O-sulphamate] | 28.8 ± 3.2 | 48.5 ± 0.5 | 62.0 ± 2.8 | 75.8 ± 1.2 | 21.3 ± 1.5 | 67.9 ± 1.9 | 97.1 ± 0.8
3 | NS(=O)(=O)Oc1ccc(C=CC(=O)c2ccccc2)cc1 [Compound 7, Chalcone-4-O-sulphamate] | 47.41 ± 0.05 | – | 75.11 ± 1.37 | 82.77 ± 0.23 | <10 | 24.34 ± 11.89 | 83.81 ± 0.17
4 | NS(=O)(=O)Oc1ccc(C(=O)c2ccccc2)cc1 [Compound 6, Benzophenone-4-O-sulphamate] | 76.73 ± 2.47 | – | 88.04 ± 0.82 | 92.28 ± 0.41 | <10 | 33.04 ± 10.68 | 87.89 ± 2.02
5 | Oc1ccc(C(O)(c2ccc(O)cc2)C2CCCCC2)cc1 [Compound 24, 1-Cyclohexyl-1,1-di-(4-hydroxyphenyl)methanol] | <10 | 20.0 ± 1.6 | 33.4 ± 2.2 | 44.7 ± 0.4 | – | – | –

More lines, now with the values ahead:

Row | % Inhibition of E1-STS activity in placental microsomes ([1]; 10 μM) [%] | % Inhibition of E1-STS activity in placental microsomes ([1]; 25 µM) [%] | % Inhibition of E1-STS activity in placental microsomes ([1]; 50 µM) [%] | % Inhibition of E1-STS activity in placental microsomes ([1]; 100 µM) [%] | % Inhibition of E1-STS activity in MCF-7 cells ([2]; 0.1 μM) [%] | % Inhibition of E1-STS activity in MCF-7 cells ([2]; 1 μM) [%] | % Inhibition of E1-STS activity in MCF-7 cells ([2]; 10 μM) [%] | SMILES
6 | 18.8 ± 1.3 | 30.7 ± 3.4 | 43.7 ± 2.6 | 58.3 ± 0.1 | <10 | 30.7 ± 5.6 | 87.2 ± 1.8 | NS(=O)(=O)Oc1cccc(C(=O)c2cccc(O)c2)c1 [Compound 29, 3′-hydroxybenzophenone-3-O-sulphamate]
7 | 62.1 ± 1.4 | 82.0 ± 0.4 | 88.1 ± 0.3 | 92.8 ± 0.2 | 34.8 ± 1.7 | 83.8 ± 0.5 | 96.7 ± 1.0 | NS(=O)(=O)Oc1ccc(C(=O)c2ccc(O)cc2)cc1 [Compound 5, 4′-Hydroxybenzophenone-4-O-sulphamate]
8 | 65.3 ± 0.9 | 79.4 ± 0.9 | 87.4 ± 0.9 | 91.9 ± 0.4 | 67.2 ± 1.1 | 96.6 ± 1.4 | 99.7 ± 0.1 | NS(=O)(=O)Oc1ccc(Sc2ccc(OS(N)(=O)=O)cc2)cc1 [Compound 15, Thiodiphenyl-4,4′O,O-bis-sulphamate]
